System: IL-6
Assay: LPS-induced IL-6 secretion in primary human monocyte-derived macrophages (ELISA)
Type: cell-based
Settings: LPS 0.15 ng/mL, baseline subtracted
Protocol: Unpurified buffy coats (Research Blood Components) were carefully poured into 50 mL centrifuge tubes and diluted with room temperature Dulbecco's Phosphate Buffered Saline (dPBS) with Calcium and Magnesium (Gibco). Diluted buffy coats were further divided into four total 50 mL centrifuge tubes at 20 mL per tube. Lymphocyte Separation Medium (Corning) was carefully pipetted to the bottom of each centrifuge tube. Mixtures were centrifuged at 850× g for 32 minutes at 20° C. with 0 deceleration and acceleration.
The PBMC layer was separated from other components after centrifugation and added to new 50 mL centrifuge tube containing 25 mL dPBS. Total volume was brought up to 50 mL with dPBS and centrifuged at 600×g for 10 minutes at 20° C. with acceleration of 9, deceleration of 5. Supernatant was carefully removed from cell pellets. The cell pellets were resuspended using 10 mL dPBS. Total volume was then brought up to 50 mL using dPBS and centrifuged at 450×g for 5 min at 20° C. with acceleration of 9, deceleration of 9. The supernatant removal and cell pellet resuspension was repeated again.
The supernatant was then carefully removed from cell pellets. Cell pellets were resuspended in 10 mL dPBS without calcium or magnesium and filtered through a 70 uM cell strainer. The total PBMC number was determined using a Cellometer K2 automated cell counter. A total of 5E6 cells were saved for flow cytometric analysis. Remaining cells were centrifuged at 490×g for 5 minutes at 20° C. with acceleration of 9, deceleration of 9.
CD14+ cells were selected using EasySep™ Human CD14 Positive Selection Kit II ([…] Technologies). Cells were resuspended in cold EasySep™ Buffer ([…] Technologies) at 1×10^8 cells/mL. A total of 100 uL/mL EasySep™ Human CD14 Positive Selection Cocktail II was added to the cell suspension, mixed, and incubated at room temperature for 10 minutes. A total of 100 uL/mL RapidSpheres were added to the mixture and incubated at room temperature for 3 minutes after mixing, then RoboSep buffer was added to bring up the total volume to 10 mL. The mixture in a 15 mL tube was placed in magnet and incubated at room temperature for 3 minutes. Supernatant was discarded and 10 mL fresh EasySep™ buffer was added to 15 mL tube. The addition of RoboSep buffer, mixing, and discarding of supernatant was repeated two more times.
Negative and positive fractions were centrifuged at 490×g for 5 minutes at 20° C. with acceleration of 9, deceleration of 9, and resuspended in DMEM (Gibco) and 10% Heat Inactivated Fetal Bovine Serum (Atlanta Bio) and Penicillin/Streptomycin. Cells were counted and centrifuged again at 490× g for 5 minutes at 20° C. with acceleration of 9, deceleration of 9. After centrifugation, cell were resuspended in DMEM (Gibco) and 10% Heat Inactivated Fetal Bovine Serum (Atlanta Bio) and Penicillin/Streptomycin containing 500 U/mL […] and plated at 1-2×10^6 cells/mL on 10 cm tissue culture plates. Cells were kept in 37° C., 5% CO2 in between feedings/harvest.
Cells were fed every 3-4 days by removing media and unattached cells, centrifuging at 490× g for 5 minutes at 20° C. with acceleration of 9, deceleration of 9, and resuspending in fresh DMEM (Gibco) and 10% Heat Inactivated Fetal Bovine Serum (Atlanta Bio) and Penicillin/Streptomycin containing GM-CSF. Resuspended cells were seeded back onto 10 cm tissue culture plates and incubated at 37° C., 5% CO2. Differentiated macrophages were used for subsequent experiments.
Primary human PMBC derived macrophages were seeded on day 0 at 3.0E4 cells per well in 96-well microplates (ThermoFisher) in Dulbecco's Modified Eagle Medium (DMEM) (Gibco) supplemented with penicillin-streptomycin (Hyclone) and 10% heat inactivated fetal bovine serum (HI-FBS) (Atlanta Bio) and incubated overnight at 37° C., 5% CO2. On day 1, cells were washed once with 150 uL per well DPBS (Gibco) and treated with 75 uL of: • a. […]

## CC(C)[C@H](N)C(=O)O [Valine, L-Valine]
Donor 1, Conc. 234 μM (baseline)
  IL-6 Measurements Mean: 0
Donor 1, Conc. 4684 μM
  IL-6 Measurements Mean: −85.9843
Donor 1, Conc. 11710 μM
  IL-6 Measurements Mean: −97.25
Donor 1, Conc. 23420 μM
  IL-6 Measurements Mean: −106.268
Donor 2, Conc. 234 μM (baseline)
  IL-6 Measurements Mean: −4.7E−15
Donor 2, Conc. 4684 μM
  IL-6 Measurements Mean: −4.528
Donor 2, Conc. 11710 μM
  IL-6 Measurements Mean: −1.196
Donor 2, Conc. 23420 μM
  IL-6 Measurements Mean: 4.396
Donor 3, Conc. 234 μM (baseline)
  IL-6 Measurements Mean: 4.26E−14
Donor 3, Conc. 4684 μM
  IL-6 Measurements Mean: −30.0609
Donor 3, Conc. 11710 μM
  IL-6 Measurements Mean: −43.8022
Donor 3, Conc. 23420 μM
  IL-6 Measurements Mean: −29.2004

Source: patent US20210260010A1, “COMPOSITIONS AND METHODS FOR THE REDUCTION OR TREATMENT OF INFLAMMATION” (AXCELLA HEALTH INC., priority 2018, published 2021)
